Assay results from PubChem BioAssay (NCI).
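Interpolation was linear, between the two tested concentrations surrounding the appropriate level; five concentrations were tested over 48 hours in 96-well plates. TGI: concentration producing complete growth inhibition.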

Legend:
Assay in all cases: DTP human tumour cell line panel, 48 h
OVCAR-8 ovarian = system: OVCAR-8 ovarian
OVCAR-4 ovarian = system: OVCAR-4 ovarian
K-562 leukemia = system: K-562 leukemia
SNB-19 CNS = system: SNB-19 CNS
NCI/ADR-RES ovarian = system: NCI/ADR-RES ovarian
CAKI-1 renal = system: CAKI-1 renal
RXF 393 renal = system: RXF 393 renal

| SMILES | TGI (OVCAR-8 ovarian) [µM] | TGI (OVCAR-4 ovarian) [µM] | TGI (K-562 leukemia) [µM] | TGI (SNB-19 CNS) [µM] | TGI (NCI/ADR-RES ovarian) [µM] | TGI (CAKI-1 renal) [µM] | TGI (RXF 393 renal) [µM] |
| --- | --- | --- | --- | --- | --- | --- | --- |
| SC[C@@H]1COC[C@H](CS)S1 | > 100 | > 100 | > 100 | > 100 |  |  |  |
| CC(C)(C)[Si](C)(C)OCC1OC(n2cc(F)c(=O)[nH]c2=O)CC1O[Si](C)(C)C(C)(C)C (centres undefined) | 35.7 | 17.4 | 16 | 25.3 | 35.6 | 25.6 | 16.2 |
| COc1cc2c(c(N)c1OC)C(=O)/C(=C/c1cc(C)c(O)c(C)c1)C2 | > 100 | > 100 |  | > 100 | > 100 | > 100 | > 100 |
| NC(=O)Cc1ncn(-c2ccccc2)n1 | > 100 |  | > 100 | > 100 | > 100 | > 100 | > 100 |
| Cc1nc2c(O)cccc2c(=O)[nH]1 | > 1000 | > 1000 | > 1000 | > 1000 | > 1000 | > 1000 | > 1000 |
| CCN(CC)CCCC(C)NC(=O)c1cc(-c2nccn2C)nc2ccc(C)cc12 (centres undefined) | > 100 | > 100 |  | > 100 | > 100 | > 100 | > 100 |
| COc1ccc(N2C(=O)CSC2c2cc3cc(Br)ccc3nc2Cl)cc1 (centres undefined) | > 50 | > 50 | > 50 | > 50 | > 50 | > 50 | > 50 |
| COc1cc(C2SCC(=O)N2c2ccc(-c3ccc(-n4c(-c5ccccc5)nc5ccccc5c4=O)cc3)cc2)ccc1O (centres undefined) | > 100 | > 100 | > 100 | > 100 | > 100 | > 100 |  |
| COc1ccc(C2=NN(C(=O)c3ccccc3)C(O)(c3cc(F)c(Cl)cc3Cl)C2)cc1OC (centres undefined) | > 100 | 53.1 | > 100 | > 100 | > 100 | > 100 | 55.5 |
| NCCCCC(N)C(=O)N1CCN(c2nc(N3CCCC3)c3nc(Cl)c(NCc4ccccc4)nc3n2)CC1 (centres undefined) | 31.5 | 50.8 | 47.2 | 33.2 | > 100 | 91.8 | 34 |
| CC1CC(=O)N2CCCNC2=C1C#N (centres undefined) | > 100 | > 100 | > 100 | > 100 | > 100 | > 100 | > 100 |
| CCCCCCNC(=O)c1cc(C#Cc2cc(OC)ccc2OC)ccc1OC | > 100 | > 100 | > 100 | > 100 | > 100 | > 100 |  |
| CC1=Nc2nc3ccccc3n2C(C)(C)C1 | > 100 | > 100 | > 100 | > 100 | > 100 | > 100 | > 100 |
| CC(C)=CCC[C@](C)(O)[C@H]1CC[C@]2(C)[C@@H]1[C@H](O)C[C@@H]1[C@@]3(C)CC[C@H](O[C@@H]4O[C@H](CO)[C@@H](O)[C@H](O)[C@H]4O)C(C)(C)[C@@H]3CC[C@]12C | 33.6 | 38.1 | 38.1 | 35.4 | 55.1 | 34.2 | 32.2 |
| Cn1c(N(CCO)CCO)cnc1[N+](=O)[O-] | > 100 | > 100 | > 100 | > 100 | > 100 | > 100 | > 100 |
| Nc1ncnc2c1ncn2[C@@H]1C[C@H]1CO | > 100 |  | > 100 | > 100 | > 100 |  |  |
| COC(=O)c1cc(C)n2c1CS[C@@H]2c1ccccc1 | > 100 | > 100 | > 100 | > 100 | 87 | > 100 | 55.5 |
| Cc1c(C)c(S(=O)(=O)N(CCCCCN)OCCCN)c(C)c2c1OC(C)(C)CC2 | > 50 | 13.3 | > 59.7 | 24.8 | 41.7 | > 59.1 | 71.9 |
| C=C[C@@]1(C)CC2CC[C@]3(C)C(C)=CC(=O)CC3[C@]2(C)CC1O (some centres undefined) |  | > 100 | > 100 | > 100 | > 100 | > 100 | > 100 |
| CSc1c(CC(=O)O)n(Cc2ccccc2)c2ccccc12 | > 100 | > 100 | > 100 | > 100 | > 100 | > 100 | > 100 |
| COc1ccc(-n2nnc3c(C#N)c(-c4ccccc4)c(C)n3c2=O)cc1 | > 100 | > 100 | > 100 | > 100 | > 100 | > 100 | 93.8 |
| COc1ccc(OC)c(C2CCCc3c2cnc2nc(N)nc(N)c32)c1 (centres undefined) | > 100 | > 100 | > 100 | > 100 | > 100 | > 100 |  |

| SMILES | TGI (OVCAR-8 ovarian) [µM] | TGI (OVCAR-4 ovarian) [µM] | TGI (K-562 leukemia) [µM] | TGI (SNB-19 CNS) [µM] | TGI (NCI/ADR-RES ovarian) [µM] | TGI (CAKI-1 renal) [µM] | TGI (RXF 393 renal) [µM] |
| --- | --- | --- | --- | --- | --- | --- | --- |
| CCOC(=O)C1c2[nH]c3ccccc3c2CCN1C(=O)c1ccco1 (centres undefined) | > 10 | > 10 | > 10 | > 10 | > 10 | > 10 |  |
| CC1(C)CC(=O)C(CC(C(=O)C(=O)Nc2cc(C(F)(F)F)ccc2Cl)C(=O)c2ccco2)C(=O)C1 (centres undefined) | > 100 | > 100 | > 100 | > 100 | > 100 | > 100 |  |
| COC(=O)C(/C(=N/N)C(=O)Nc1ccc(C)c(C)c1)c1nc2ccc(Cl)cc2[nH]c1=O (centres undefined) | > 100 | > 100 | > 100 |  | > 100 | > 100 | > 100 |
| Cn1c(=O)oc2cc(C(=S)N3CCC(Cc4ccccc4)CC3)ccc21 | > 100 |  | > 100 | > 100 | > 100 | > 100 | > 100 |
| O=C(O)Cn1nnc2c(=O)[nH][nH]c(=O)c21 | > 100 | > 10 | > 10 | > 100 | > 100 | > 100 |  |
| Cc1[nH]c2ncn3ncnc3c2c1Cc1ccccc1 | > 100 | > 100 |  | > 100 | > 100 | > 100 | > 100 |
| O=C(Cn1c(C(=O)/C=C/c2ccco2)nc2ccccc21)c1ccc(Cl)cc1 |  | 65 | 51 | > 100 | 30.4 |  | > 100 |
| C/C(O)=C(/C=N\C(=S)Nc1ccc(Cl)c(Cl)c1)C(=O)Nc1ccccc1C | 66.3 | 76.5 |  | 84.2 | 61.1 | 95.7 | > 100 |
| COC(=O)c1ccccc1/C=C1\Cc2cc3c(cc2C1=O)CCC3 | > 100 | > 100 |  | > 100 | > 100 | > 100 |  |
| C=CC1(c2ccc3ccccc3c2)OCC(CC)(CC)CO1 | > 100 | > 100 | 48.1 | 36.3 | 66.4 |  | 36.2 |
| CC(=O)OCc1cccc(O)c1C(=O)CCC=C(C)C |  | > 100 | > 100 | > 100 | > 100 | > 100 | > 100 |
| CCOC(=O)C1(Cc2ccccc2)Cc2cc3c(cc2C1=O)CCC3 (centres undefined) | > 100 | > 100 | > 100 | > 100 | > 100 |  | > 100 |
| OC(c1ccc(F)cc1)C(F)(F)c1nc(-c2ccccc2)no1 (centres undefined) | > 100 | 41.5 |  | 64.2 | > 100 | 72.1 |  |
| CCCCCCc1cc2cc(C(=O)Nc3ccccc3F)c(=N)oc2cc1O | 8.34 | 22.4 | > 100 | 56.2 | 16.8 | 22.9 |  |
| O=C1C=C(c2c(-c3ccccc3)[nH]c3ccccc23)C(=O)N1c1ccccc1 | 20.8 |  | 29.9 | 66.1 | 66.2 | 25.7 | 15.2 |
| C/C(=N\Nc1nc2ccccc2[nH]1)c1ccncn1 | > 87.6 | > 100 | > 100 | > 100 | 4.54 | > 49 |  |
| Cc1nc2c(=O)[nH]c3ccccc3c2o1 | > 100 | > 100 |  | > 100 | > 100 | > 100 | > 100 |
| CC(=O)c1c2c(cc3c1CC1(Cc4cc5c(cc4C1=O)CCC5)C3)CCC2 (centres undefined) | > 100 | > 100 | > 100 | > 100 | > 100 | > 100 |  |
| CN(C)C1(C(=O)O)CC1 | > 100 | > 100 | > 100 | > 100 | > 100 |  | > 100 |
| COc1cc(CNc2nc3ccccc3nc2-c2cccs2)cc(OC)c1OC | > 100 | 23.4 | 97.7 |  | 51.2 | 28.4 | > 100 |
| COc1cc(COC(=O)N2CCCCC2C(=O)O)c([N+](=O)[O-])cc1OC (centres undefined) | > 100 |  | > 100 | > 100 | > 100 |  | > 100 |
| COC(=O)[C@@]12CC[C@]1(C(=O)OC)C1C(C)=CC(=O)O[C@@]12C (some centres undefined) | > 100 | > 100 | > 100 | > 100 | > 100 |  | > 100 |
